Test results as given in patent US8541573B2, “Substituted sulfonamide compounds” (Gruenenthal GmbH, priority 2008, dated 2013).
Structures can show the parent of a compound that is named as a salt.

Experiments:
B1R of rats = target: T1, B1R of rats (Rattus norvegicus, UniProt P97583); experiment: Functional investigation on the bradykinin 1 receptor (B1R), cell-based fluorescent calcium-mobilization assay (FLIPR/Novostar), rat; conditions: 10 μM test substance, CHO K1 cells stably transfected with rat B1R gene, agonist Des-Arg9-bradykinin at EC80, % inhibition compared with maximum achievable inhibition; for inhibition at 10 µM: read-out: B1R antagonism, rat [10 μM] % inhibition
T1 construct: expressed in transfected cells; host or cells: CHO K1 cells
T1 sequence (P97583 1-337): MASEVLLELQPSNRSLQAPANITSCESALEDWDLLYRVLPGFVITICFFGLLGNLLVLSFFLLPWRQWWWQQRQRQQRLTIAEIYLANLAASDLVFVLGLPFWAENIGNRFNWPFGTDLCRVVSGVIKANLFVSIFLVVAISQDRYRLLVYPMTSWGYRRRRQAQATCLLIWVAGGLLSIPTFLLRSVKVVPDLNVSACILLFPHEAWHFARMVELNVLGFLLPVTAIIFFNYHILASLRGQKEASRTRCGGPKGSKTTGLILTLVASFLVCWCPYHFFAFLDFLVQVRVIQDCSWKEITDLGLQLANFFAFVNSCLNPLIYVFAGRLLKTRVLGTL
Experimental: (§1) The agonistic or antagonistic action of substances can be quantified on the bradykinin 1 receptor (B1R) of the human and rat species with ectopically expressing cell lines (CHO K1 cells) and with the aid of a Ca^2+-sensitive dyestuff (Fluo-4) in a fluorescent imaging plate reader (FLIPR). The figure in % activation is based on the Ca^2+ signal after addition of Lys-Des-Arg^9-bradykinin (0.5 nM) or Des-Arg^9-bradykinin (100 nM). Antagonists lead to a suppression of the Ca^2+ inflow after addition of the agonist. % inhibition compared with the maximum achievable inhibition is stated.
(§2) The agonistic or antagonistic action of substances can be determined on the bradykinin 1 receptor (B1R) of humans and rats by means of a cell-based flourescent calcium-mobilization assay. According to this assay agonist-induced increase of intracellular free Ca^2+ is quantified by means of a Ca^2+-sensitive dye (Fluo-4 type, Molecular Probes Europe BV, Leiden, Netherlands), in a Fluorescent Imaging Plate Reader (FLIPR, Molecular Devices, Sunnyvale, USA) and/or the Novostar (BMG Labtech GmbH, Offenburg, Germany).
(§3) Chinese hamster ovary cells (CHO K1 cells), which are stably transfected with the human B1R gene (hB1R cells) or with the B1R gene of rats (rB1R cells), are used. For functional investigations these cells are seeded into black 96-well plates with a clear bottom (BD Biosciences, Heidelberg, Germany or Greiner, Frickenhausen, Germany) in a density of 20,000-35,000 cells/well. The cells are incubated overnight in a humidified atmosphere at 37° C. and 5% CO2 in culture medium (hB1R cells: Nutrient Mixture Ham's F12, Gibco Invitrogen GmbH, Karlsruhe, Germany or DMEM, Sigma-Aldrich, Taufkirchen, Germany; rB1R cells: D-MEM/F12, Gibco Invitrogen GmbH, Karlsruhe, Germany) with 10 vol. % FBS (foetal bovine serum, Gibco Invitrogen GmbH, Karlsruhe, Germany).
(§4) On the following day the cells are loaded with the Ca^2+-sensitive dye Fluo-4-AM (Molecular Probes Europe BV, Leiden, Netherlands):
(§5) Method A: The medium of the cells is removed and cell plates are incubated with loading solution, which contains 2.13 μM Fluo-4-AM, 2.5 mM probenecid (Sigma-Aldrich, Taufkirchen, Germany), and 10 mM HEPES (Sigma-Aldrich, Taufkirchen, Germany) in HBSS buffer (Hank's buffered saline solution, Gibco Invitrogen GmbH, Karlsruhe, Germany) for 60 minutes at 37° C. After the plates are washed twice with HBSS buffer, HBSS buffer supplemented 0.1% BSA (bovine serum albumin; Sigma-Aldrich, Taufkirchen, Germany), 5.6 mM glucose and 0.05% gelatine (Merck KGaA, Darmstadt, Germany) is added. Cell plates are incubated for at least 20 minutes in the dark at room temperature before they are used for the Ca^2+ measurement in the FLIPR or Novostar.
(§6) Method B: The plates are washed with buffer A (15 mM HEPES, 80 mM NaCl, 5 mM KCl, 1.2 mM CaCl2, 0.7 mM MgSO4, 2 mg/ml glucose, 2.5 mM probenecid) and subsequently loaded with buffer A containing 2.4 μM Fluo-4-AM and 0.025% pluronic F127 (Sigma-Aldrich, Taufkirchen, Germany) for 60 minutes at 37° C. Cell plates are washed twice with buffer A. Then, buffer A supplemented with 0.05% BSA and 0.05% gelatine is added and cell plates are incubated in the dark at room temperature for at least 20 minutes before measurement in the FLIPR or Novostar is started.
(§7) The Ca^2+-dependent fluorescence is measured both before and after the addition of substances (λex=488 nm, λem=540 nm). For quantification of the effect the highest fluorescence intensity (FC, fluorescence counts) over time is given. The FLIPR protocol consists of two substance additions, done within the instrument while continuously monitoring the Ca^2+-dependent fluorescence at 540 nm. When the Novostar was used, one addition had to be done outside the instrument. Test substances (10 μM) are initially pipetted onto the cells and the intracellular Ca^2+ rise is compared with the control (hB1R: Lys-Des-Arg9-bradykinin>=50 nM; rB1R: Des-Arg9-bradykinin>=1 μM). […]

human B1R = target: T2, human B1R (Homo sapiens, UniProt P46663); experiment: Functional investigation on the bradykinin 1 receptor (B1R), cell-based fluorescent calcium-mobilization assay (FLIPR/Novostar), human; conditions: 10 μM test substance, CHO K1 cells stably transfected with human B1R gene, agonist Lys-Des-Arg9-bradykinin at EC80, % inhibition compared with maximum achievable inhibition; for inhibition at 10 µM: read-out: B1R antagonism, human [10 μM] % inhibition
T2 construct: expressed in transfected cells; host or cells: CHO K1 cells
T2 sequence (P46663 1-353): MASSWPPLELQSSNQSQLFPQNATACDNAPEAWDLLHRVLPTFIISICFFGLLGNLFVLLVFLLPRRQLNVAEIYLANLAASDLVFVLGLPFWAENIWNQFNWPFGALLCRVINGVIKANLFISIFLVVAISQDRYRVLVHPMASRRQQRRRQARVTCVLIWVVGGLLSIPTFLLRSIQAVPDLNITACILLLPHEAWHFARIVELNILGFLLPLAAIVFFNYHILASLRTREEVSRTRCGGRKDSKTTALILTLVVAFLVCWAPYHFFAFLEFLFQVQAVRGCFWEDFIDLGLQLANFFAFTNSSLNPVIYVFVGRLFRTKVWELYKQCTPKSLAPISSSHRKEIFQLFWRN
Experimental: as §1, §2, §3, §4, §5, §6, §7

SMILES | inhibition at 10 µM (B1R of rats) | inhibition at 10 µM (human B1R) | B1R antagonism, rat [10 μM] % inhibition (B1R of rats; hydrochloride, 10 µM) | B1R antagonism, human [10 μM] % inhibition (human B1R; hydrochloride, 10 µM)
Cc1cccc(Cl)c1S(=O)(=O)N1c2ccccc2OCC1COCC(=O)N1CCC(CNC(=O)c2ccncc2)(N2CCN(C)CC2)CC1 (centres unmarked) [Example 50, N-((1-(2-((4-(2-Chloro-6-methylphenylsulfonyl)-3,4-dihydro-2H-benzo[b][1,4]oxazin-3-yl)methoxy)acetyl)-4-(4-methylpiperazin-1-yl)piperidin-4-yl)methyl)isonicotinamide] | 102% | 96% |  | 
CC(=O)NCC1(N2CCN(C)CC2)CCN(C(=O)CC2CCCCN2S(=O)(=O)c2cccc(C(F)(F)F)c2)CC1 (centres unmarked) [Example 12, N-((4-(4-methylpiperazin-1-yl)-1-(2-(1-(3-(trifluoromethyl)phenylsulfonyl)-piperidin-2-yl)acetyl)piperidin-4-yl)methyl)acetamide] | 13% | 80% |  | 
CN1CCN(C2(CNC(=O)c3cccnc3)CCN(C(=O)COCC3CCc4ccccc4N3S(=O)(=O)c3ccc(Cl)c(Cl)c3)CC2)CC1 (centres unmarked) [Example 40, N-((1-(2-((1-(3,4-dichlorophenylsulfonyl)-1,2,3,4-tetrahydroquinolin-2-yl)methoxy)acetyl)-4-(4-methylpiperazin-1-yl)piperidin-4-yl)methyl)nicotinamide] | 103% | 49% |  | 
CC(=O)NCC1(N2CCN(c3ccncc3)CC2)CCN(C(=O)CC(NS(=O)(=O)c2ccc3ccccc3c2)c2ccccc2)CC1 (centres unmarked) [Example 14, N-((1-(3-(naphthalene-2-sulfonamido)-3-phenylpropanoyl)-4-(4-(pyridin-4-yl)piperazin-1-yl)piperidin-4-yl)methyl)acetamide] | 82% | 100% |  | 
COc1cc(C)c(S(=O)(=O)N2c3ccccc3OCC2COCC(=O)N2CCC(CNC(=O)c3ccncc3)(N3CCN(C)CC3)CC2)c(C)c1 (centres unmarked) [Example 49, N-((1-(2-((4-(4-Methoxy-2,6-dimethylphenylsulfonyl)-3,4-dihydro-2H-benzo[b][1,4]oxazin-3-yl)methoxy)acetyl)-4-(4-methylpiperazin-1-yl)piperidin-4-yl)methyl)isonicotinamide] | 102% | 100% |  | 
CN1CCN(C2(CNC(=O)Cc3ccccc3)CCN(C(=O)CC3CCCCN3S(=O)(=O)c3cccc(C(F)(F)F)c3)CC2)CC1 (centres unmarked) [Example 4, N-((4-(4-methylpiperazin-1-yl)-1-(2-(1-(3-(trifluoromethyl)phenylsulfonyl)piperidin-2-yl)acetyl)piperidin-4-yl)methyl)-2-phenylacetamide] | 59% | 67% |  | 
CN1CCN(C2(CNC(=O)c3ccccn3)CCN(C(=O)COCC3CCc4ccccc4N3S(=O)(=O)c3ccc(Cl)c(Cl)c3)CC2)CC1 (centres unmarked) [Example 20, N-((1-(2-((1-(3,4-dichlorophenylsulfonyl)-1,2,3,4-tetrahydroquinolin-2-yl)-methoxy)acetyl)-4-(4-methylpiperazin-1-yl)piperidin-4-yl)methyl)picolinamide] | 60% | 91% |  | 
Cc1cc(S(=O)(=O)N2CCCCC2CCC(=O)N2CCC(CNC(=O)c3ccccc3)(N3CCN(C)CC3)CC2)c(C)cc1Cl (centres unmarked) [Example 6, N-((1-(3-(1-(4-chloro-2,5-dimethylphenylsulfonyl)piperidin-2-yl)propanoyl)-4-(4-methylpiperazin-1-yl)piperidin-4-yl)methyl)benzamide] | 24% | 99% |  | 

Other lines, results leading:

inhibition at 10 µM (B1R of rats) | inhibition at 10 µM (human B1R) | B1R antagonism, rat [10 μM] % inhibition (B1R of rats; hydrochloride, 10 µM) | B1R antagonism, human [10 μM] % inhibition (human B1R; hydrochloride, 10 µM) | SMILES
101% | 103% |  |  | COc1cc(C)c(S(=O)(=O)N2CCCCC2COCC(=O)N2CCC(CNC(=O)c3ccccn3)(N3CCN(C)CC3)CC2)c(C)c1 (centres unmarked) [Example 21, N-((1-(2-((1-(4-methoxy-2,6-dimethylphenylsulfonyl)piperidin-2-yl)methoxy)acetyl)-4-(4-methylpiperazin-1-yl)piperidin-4-yl)methyl)picolinamide]
96% | 97% |  |  | COc1cc(C)c(S(=O)(=O)N(CCOCC(=O)N2CCC(CN3Cc4ccccc4C3=O)(N3CCN(C4CC4)CC3)CC2)C2CC2)c(C)c1 [Example 42, N-Cyclopropyl-N-(2-(2-(4-(4-cyclopropylpiperazin-1-yl)-4-((1-oxoisoindolin-2-yl)methyl)piperidin-1-yl)-2-oxoethoxy)ethyl)-4-methoxy-2,6-dimethylbenzenesulfonamide]
102% | 104% |  |  | COc1cc(C)c(S(=O)(=O)N2CCCCC2COCC(=O)N2CCC(CNC(=O)c3cccnc3)(N3CCN(C)CC3)CC2)c(C)c1 (centres unmarked) [Example 34, N-((1-(2-((1-(4-methoxy-2,6-dimethylphenylsulfonyl)piperidin-2-yl)methoxy)acetyl)-4-(4-methylpiperazin-1-yl)piperidin-4-yl)methyl)nicotinamide]
 |  | 97% | 100% | COc1cc(C)c(S(=O)(=O)N(C)CCOCC(=O)N2CCC(CNC(=O)c3ccncc3)(N3CCN(C)CC3)CC2)c(C)c1 [Example 48, N-((1-(2-(2-(4-Methoxy-N,2,6-trimethylphenylsulfonamido)ethoxy)acetyl)-4-(4-methylpiperazin-1-yl)piperidin-4-yl)methyl)isonicotinamide hydrochloride]
101% | 100% |  |  | COc1cc(C)c(S(=O)(=O)N(CCOCC(=O)N2CCC(CNC(C)=O)(N3CCN(c4ccncc4)CC3)CC2)C2CC2)c(C)c1 [Example 46, N-((1-(2-(2-(N-Cyclopropyl-4-methoxy-2,6-dimethylphenylsulfonamido)ethoxy)acetyl)-4-(4-(pyridin-4-yl)piperazin-1-yl)piperidin-4-yl)methyl)acetamide]
